In one test the target is T1, CRF1R (Homo sapiens, UniProt P34998).
T1 sequence (P34998 24-415): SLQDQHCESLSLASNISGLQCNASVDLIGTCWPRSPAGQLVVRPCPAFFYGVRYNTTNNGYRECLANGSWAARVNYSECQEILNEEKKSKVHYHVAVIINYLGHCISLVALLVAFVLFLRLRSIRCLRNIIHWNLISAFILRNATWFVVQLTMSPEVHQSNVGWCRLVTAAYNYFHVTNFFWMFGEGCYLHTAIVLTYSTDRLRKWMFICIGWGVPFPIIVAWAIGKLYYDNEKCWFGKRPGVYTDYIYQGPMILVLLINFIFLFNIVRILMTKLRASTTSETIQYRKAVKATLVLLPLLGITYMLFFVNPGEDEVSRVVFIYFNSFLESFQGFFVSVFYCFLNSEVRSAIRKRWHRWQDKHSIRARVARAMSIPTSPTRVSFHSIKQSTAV
The test is described as follows: CRF1R agonist activation (EC50 / Emax), called comparative CRF binding. The class given is cell-based. Conditions: for Emax: read-out: CRF1R Emax. Summed up:
(§1)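 Agonism at each human CRF receptor subtype is inferred from increased cAMP relative to vehicle, using cells expressing that subtype and either lysate cAMP measurement or a cAMP response element reporter.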

A further test concerns the target T2, CRF2R (Homo sapiens, UniProt Q13324).
T2 sequence (Q13324 1-411): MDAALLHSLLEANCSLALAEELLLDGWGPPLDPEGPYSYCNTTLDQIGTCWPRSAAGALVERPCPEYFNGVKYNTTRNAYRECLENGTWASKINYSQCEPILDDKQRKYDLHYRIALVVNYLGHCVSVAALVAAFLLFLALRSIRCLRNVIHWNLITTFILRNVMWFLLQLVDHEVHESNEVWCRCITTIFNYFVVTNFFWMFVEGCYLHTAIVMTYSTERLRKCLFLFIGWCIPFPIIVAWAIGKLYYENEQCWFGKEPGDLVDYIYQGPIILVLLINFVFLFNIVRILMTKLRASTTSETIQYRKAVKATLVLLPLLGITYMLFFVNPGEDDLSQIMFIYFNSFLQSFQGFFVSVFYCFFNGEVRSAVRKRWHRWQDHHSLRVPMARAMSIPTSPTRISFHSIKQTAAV
Briefly: CRF2R agonist activation (EC50 / Emax), called comparative CRF binding. The class given is cell-based. As to conditions: for Emax: read-out: CRF2R Emax. In a few lines:
as §1

Peptide text beside a SMILES is read from it.

The term Emax denotes the size of the effect at its maximum, as opposed to the concentration needed. Turning to `CC[C@H](C)[C@H](NC(=O)[C@H](CCCNC(=N)N)NC(=O)[C@H](C)NC(=O)[C@H](CC(N)=O)NC(=O)[C@H](CCC(N)=O)NC(=O)[C@H](CCC(=O)O)NC(=O)[C@H](C)NC(=O)[C@H](CCCNC(=N)N)NC(=O)[C@H](CCC(=O)O)NC(=O)[C@H](CCCNC(=N)N)NC(=O)[C@H](CCC(N)=O)NC(=O)[C@H](CO)NC(=O)[C@H](CCC(N)=O)NC(=O)[C@@H](NC(=O)[C@H](CCCNC(=N)N)NC(=O)[C@H](C)NC(=O)[C@H](CC(C)C)NC(=O)[C@H](CCC(=O)O)NC(=O)[C@H](CC(C)C)NC(=O)[C@H](CC(C)C)NC(=O)[C@@H](NC(=O)[C@H](CCCNC(=N)N)NC(=O)[C@H](CC(C)C)NC(=O)[C@H](CC(C)C)NC(=O)[C@H](CC(C)C)NC(=O)[C@H](CC(C)C)NC(=O)[C@@H]1CCCN1C(=O)[C@H](CC(C)C)NC(=O)[C@H](CC(=O)O)NC(=O)[C@@H](NC(=O)[C@H](CO)NC(=O)[C@H](CC(C)C)NC(=O)[C@H](CO)NC(=O)[C@@H]1CCCN1C(=O)[C@H](CC(N)=O)NC(=O)[C@@H](N)CC(=O)O)[C@@H](C)CC)[C@@H](C)O)[C@@H](C)O)C(=O)N[C@@H](Cc1ccccc1)C(=O)N[C@@H](C)C(=O)N[C@@H](CCCNC(=N)N)C(=O)N[C@H](C(N)=O)C(C)C` [compound 340] (H-DNPSLSIDLPLLLLRTLLELARTQSQRERAEQNARIFARV-NH2; N-terminus assumed), the Emax worked out at 96% at CRF1R and 100% on CRF2R.
`CC[C@H](C)[C@H](NC(=O)[C@H](CCCNC(=N)N)NC(=O)[C@H](C)NC(=O)[C@H](CC(N)=O)NC(=O)[C@H](CCC(N)=O)NC(=O)[C@H](CCC(=O)O)NC(=O)[C@H](C)NC(=O)[C@H](CCCNC(=N)N)NC(=O)[C@H](CCC(=O)O)NC(=O)[C@H](CCCNC(=N)N)NC(=O)[C@H](CCC(N)=O)NC(=O)[C@H](CO)NC(=O)[C@H](CCC(N)=O)NC(=O)[C@@H](NC(=O)[C@H](CCCCN)NC(=O)[C@H](CCC(=O)O)NC(=O)[C@H](CC(C)C)NC(=O)[C@H](CCC(=O)O)NC(=O)[C@H](CC(C)C)NC(=O)[C@H](CC(C)C)NC(=O)[C@@H](NC(=O)[C@H](CCCNC(=N)N)NC(=O)[C@H](CC(C)C)NC(=O)[C@H](CC(C)C)NC(=O)[C@H](CC(C)C)NC(=O)[C@H](CC(C)C)NC(=O)[C@@H]1CCCN1C(=O)[C@H](CC(C)C)NC(=O)[C@H](CC(=O)O)NC(=O)[C@@H](NC(=O)[C@H](CO)NC(=O)[C@H](CC(C)C)NC(=O)[C@H](CO)NC(=O)[C@@H]1CCCN1C(=O)[C@H](CC(N)=O)NC(=O)[C@@H](N)CC(=O)O)[C@@H](C)CC)[C@@H](C)O)[C@@H](C)O)C(=O)N[C@@H](Cc1ccccc1)C(=O)N[C@@H](C)C(=O)N[C@@H](CCCNC(=N)N)C(=O)N[C@H](C(N)=O)C(C)C` [compound 341] (H-DNPSLSIDLPLLLLRTLLELEKTQSQRERAEQNARIFARV-NH2; N-terminus assumed): the Emax at CRF1R was 82.3%; on CRF2R it was 95.5%.
Taken in the same sequence, the figures for `CC[C@H](C)[C@H](NC(=O)[C@H](C)NC(=O)[C@H](CC(N)=O)NC(=O)[C@H](CCC(N)=O)NC(=O)[C@H](CCC(=O)O)NC(=O)[C@H](C)NC(=O)[C@H](CCCNC(=N)N)NC(=O)[C@H](CCC(=O)O)NC(=O)[C@H](CCCNC(=N)N)NC(=O)[C@H](CCC(N)=O)NC(=O)[C@H](CO)NC(=O)[C@H](CCC(N)=O)NC(=O)[C@@H](NC(=O)[C@H](CCCCN)NC(=O)[C@H](CCC(=O)O)NC(=O)[C@H](CC(C)C)NC(=O)[C@H](CCC(=O)O)NC(=O)[C@H](CC(C)C)NC(=O)[C@H](CC(C)C)NC(=O)[C@@H](NC(=O)[C@H](CCCNC(=N)N)NC(=O)[C@H](CC(C)C)NC(=O)[C@H](CC(C)C)NC(=O)[C@H](CCC(N)=O)NC(=O)[C@H](CC(C)C)NC(=O)[C@@H]1CCCN1C(=O)[C@H](CC(C)C)NC(=O)[C@H](CC(=O)O)NC(=O)[C@@H](NC(=O)[C@H](CO)NC(=O)[C@H](CC(C)C)NC(=O)[C@H](CO)NC(=O)[C@@H]1CCCN1C(=O)[C@H](CC(N)=O)NC(=O)[C@@H](N)CC(=O)O)[C@@H](C)CC)[C@@H](C)O)[C@@H](C)O)C(=O)N[C@H](C(=O)N[C@@H](Cc1ccccc1)C(=O)N[C@@H](C)C(=O)N[C@@H](CO)C(=O)N[C@H](C(N)=O)C(C)C)[C@@H](C)CC` [compound 342] (H-DNPSLSIDLPLQLLRTLLELEKTQSQRERAEQNAIIFASV-NH2; N-terminus assumed) were 19.6% and 92.2%.
`CC[C@H](C)[C@H](NC(=O)[C@H](C)NC(=O)[C@H](CC(N)=O)NC(=O)[C@H](CCC(N)=O)NC(=O)[C@H](CCC(=O)O)NC(=O)[C@H](C)NC(=O)[C@H](CCCNC(=N)N)NC(=O)[C@H](CCC(=O)O)NC(=O)[C@H](CCCNC(=N)N)NC(=O)[C@H](CCC(N)=O)NC(=O)[C@H](CO)NC(=O)[C@H](CCC(N)=O)NC(=O)[C@@H](NC(=O)[C@H](CCCCN)NC(=O)[C@H](CCC(=O)O)NC(=O)[C@H](CC(C)C)NC(=O)[C@H](CCC(=O)O)NC(=O)[C@H](CC(C)C)NC(=O)[C@H](CC(C)C)NC(=O)[C@@H](NC(=O)[C@H](CCCNC(=N)N)NC(=O)[C@H](CC(C)C)NC(=O)[C@H](CC(C)C)NC(=O)[C@H](Cc1ccccc1)NC(=O)[C@H](CC(C)C)NC(=O)[C@@H]1CCCN1C(=O)[C@H](CC(C)C)NC(=O)[C@H](CC(=O)O)NC(=O)[C@@H](NC(=O)[C@H](CO)NC(=O)[C@H](CC(C)C)NC(=O)[C@H](CO)NC(=O)[C@@H]1CCCN1C(=O)[C@H](CC(N)=O)NC(=O)[C@@H](N)CC(=O)O)[C@@H](C)CC)[C@@H](C)O)[C@@H](C)O)C(=O)N[C@H](C(=O)N[C@@H](Cc1ccccc1)C(=O)N[C@@H](C)C(=O)N[C@@H](CO)C(=O)N[C@H](C(N)=O)C(C)C)[C@@H](C)CC` [compound 343] (H-DNPSLSIDLPLFLLRTLLELEKTQSQRERAEQNAIIFASV-NH2; N-terminus assumed): the Emax on CRF1R was 62.5%; at CRF2R it was 96.5%.
Turning to `CC[C@H](C)[C@H](NC(=O)[C@H](C)NC(=O)[C@H](CC(N)=O)NC(=O)[C@H](CCC(N)=O)NC(=O)[C@H](CCC(=O)O)NC(=O)[C@H](C)NC(=O)[C@H](CCCNC(=N)N)NC(=O)[C@H](CCC(=O)O)NC(=O)[C@H](CCCNC(=N)N)NC(=O)[C@H](CCC(N)=O)NC(=O)[C@H](CO)NC(=O)[C@H](CCC(N)=O)NC(=O)[C@@H](NC(=O)[C@H](CCCCN)NC(=O)[C@H](CCC(=O)O)NC(=O)[C@H](CC(C)C)NC(=O)[C@H](CCC(=O)O)NC(=O)[C@H](CC(C)C)NC(=O)[C@H](CC(C)C)NC(=O)[C@@H](NC(=O)[C@H](CCCNC(=N)N)NC(=O)[C@H](CC(C)C)NC(=O)[C@H](CC(C)C)NC(=O)[C@H](CC(C)C)NC(=O)[C@H](CC(C)C)NC(=O)[C@@H]1CCCN1C(=O)[C@H](CC(C)C)NC(=O)[C@H](CC(=O)O)NC(=O)[C@@H](NC(=O)[C@H](CO)NC(=O)[C@H](CC(C)C)NC(=O)[C@H](CO)NC(=O)[C@@H]1CCCN1)[C@@H](C)CC)[C@@H](C)O)[C@@H](C)O)C(=O)N[C@H](C(=O)N[C@@H](Cc1ccccc1)C(=O)N[C@@H](C)C(=O)N[C@@H](CO)C(=O)N[C@H](C(N)=O)C(C)C)[C@@H](C)CC` [compound 344] (H-PSLSIDLPLLLLRTLLELEKTQSQRERAEQNAIIFASV-NH2), the Emax at CRF1R is 77.7%; on CRF2R, 94.5%.
By EC50 is commonly meant the concentration at which the effect is half-maximal. With `CC[C@H](C)[C@H](NC(=O)[C@H](C)NC(=O)[C@H](CC(N)=O)NC(=O)[C@H](CCC(N)=O)NC(=O)[C@H](CCC(=O)O)NC(=O)[C@H](C)NC(=O)[C@H](CCCNC(=N)N)NC(=O)[C@H](CCC(=O)O)NC(=O)[C@H](CCCNC(=N)N)NC(=O)[C@H](CCC(N)=O)NC(=O)[C@H](CO)NC(=O)[C@H](CCC(N)=O)NC(=O)[C@@H](NC(=O)[C@H](CCCCN)NC(=O)[C@H](CCC(=O)O)NC(=O)[C@H](CC(C)C)NC(=O)[C@H](CCC(=O)O)NC(=O)[C@H](CC(C)C)NC(=O)[C@H](CC(C)C)NC(=O)[C@@H](NC(=O)[C@H](CCCNC(=N)N)NC(=O)[C@H](CC(C)C)NC(=O)[C@H](CC(C)C)NC(=O)[C@@H](NC(=O)[C@H](CC(C)C)NC(=O)[C@@H]1CCCN1C(=O)[C@H](CC(C)C)NC(=O)[C@H](CC(=O)O)NC(=O)[C@@H](NC(=O)[C@H](CO)NC(=O)[C@H](CC(C)C)NC(=O)[C@H](CO)NC(=O)[C@@H]1CCCN1C(=O)[C@H](CC(N)=O)NC(=O)[C@@H](N)CC(=O)O)[C@@H](C)CC)[C@@H](C)CC)[C@@H](C)O)[C@@H](C)O)C(=O)N[C@H](C(=O)N[C@@H](Cc1ccccc1)C(=O)N[C@@H](C)C(=O)N[C@@H](CO)C(=O)N[C@H](C(N)=O)C(C)C)[C@@H](C)CC` [compound 345] (H-DNPSLSIDLPLILLRTLLELEKTQSQRERAEQNAIIFASV-NH2; N-terminus assumed), the EC50 on CRF1R (read-out: CRF1R EC50) was at least 1000 nM; on CRF2R (read-out: CRF2R EC50) it was 39.7 nM. In addition, the Emax at CRF1R is 18.8%; at CRF2R, 100%.
